Measurements as given in US20240376074A1, “NAMPT INHIBITORS AND USES THEREOF” (Remedy Plan, Inc., priority 2021, published 2024).

The compounds below were run against T1, NAMPT (Homo sapiens, UniProt P43490) (assay: NAMPT Activity Assay (Abcam #ab221819)). Details: purified NAMPT, percent inhibition from OD450 nm; compound concentration not given.
T1 construct: purchased Abcam ab221819
Format: biochemical
Experimental: The NAMPT Activity Assay (Abcam #ab221819) was performed following manufacturers two-step reaction protocol. Briefly, compounds were added to a clear 96-well plate using the HP D300e Digital Dispenser. Purified NAMPT was added to all wells except the No NAMPT controls. Reaction Mix #1 was added to each well and the plate was incubated at 30*C for 1 hr followed by the addition of Reaction Mix #2. Absorbance was measured at OD450 nm using a multimode plate reader. Readings were recorded for 5 minutes and percent inhibition was calculated using: (1-(OD450 nm compound/OD450nm no drug))*100.

T1 sequence (P43490 whole entry): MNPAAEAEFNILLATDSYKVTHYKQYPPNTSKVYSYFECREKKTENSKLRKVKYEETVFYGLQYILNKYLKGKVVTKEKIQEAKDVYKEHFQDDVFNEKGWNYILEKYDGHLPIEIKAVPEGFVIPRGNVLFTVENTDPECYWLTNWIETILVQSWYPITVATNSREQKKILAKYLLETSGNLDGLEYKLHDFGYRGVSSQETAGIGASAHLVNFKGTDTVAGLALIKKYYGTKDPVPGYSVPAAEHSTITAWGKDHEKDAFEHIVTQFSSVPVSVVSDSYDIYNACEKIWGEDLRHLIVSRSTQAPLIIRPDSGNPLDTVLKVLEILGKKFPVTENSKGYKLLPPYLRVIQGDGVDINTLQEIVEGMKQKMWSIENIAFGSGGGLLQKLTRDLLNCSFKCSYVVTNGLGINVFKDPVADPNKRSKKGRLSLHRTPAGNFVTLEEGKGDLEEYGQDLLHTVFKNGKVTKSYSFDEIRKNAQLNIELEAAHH

Row | SMILES | NAMPT Inhibition Code*
1 | CC(=O)N(CC(F)F)c1ccc(-c2ccc(NC(=O)Cc3cccnc3)cn2)cc1Cl [I-T2290, N-[6-[4-[acetyl(2,2-difluoroethyl)amino]-3-chloro-phenyl]-3-pyridyl]-2-(3-pyridyl) acetamide] | C (C = ≥66% inhibition)
2 | CC(=O)N(CC(F)F)c1ccc(-c2ccc(NC(=O)COc3cccnc3)cn2)cc1Cl [I-T2291, N-[6-[4-[acetyl(2,2-difluoroethyl)amino]-3-chloro-phenyl]-3-pyridyl]-2-(3-pyridyloxy)acetamide] | C (C = ≥66% inhibition)
3 | CC(=O)N(CC(F)F)c1ccc(-c2ccc(NC(=O)/C=C/c3cccnc3)cn2)cc1Cl [I-T2293, (E)-N-[6-[4-[acetyl(2,2-difluoroethyl)amino]-3-chloro-phenyl]-3-pyridyl]-3-(3-pyridyl)prop-2-enamide] | C (C = ≥66% inhibition)
4 | CC(=O)N(CC(F)F)c1ccc(-c2ccc(NC(=O)C3CC3c3cccnc3)cn2)cc1Cl (centres unmarked) [I-T2294, N-[6-[4-[acetyl(2,2-difluoroethyl)amino]-3-chloro-phenyl]-3-pyridyl]-2-(3-pyridyl)cyclopropane carboxamide] | C (C = ≥66% inhibition)
5 | COC(=O)c1cc(-c2ccc(C(=O)Nc3cnc4nccn4c3)cn2)ccc1N(CC1CC1)C(C)=O [I-T2295, Methyl 2-[acetyl(cyclopropylmethyl)amino]-5-[5-(imidazo[1,2-a]pyrimidin-6-ylcarbamoyl)-2-pyridyl]benzoate] | C (C = ≥66% inhibition)
6 | COC(=O)c1cc(-c2ccc(C(=O)NCCc3cccnc3)cn2)ccc1N(CC1CC1)C(C)=O [I-T2296, Methyl 2-[acetyl(cyclopropylmethyl)amino]-5-[5-[2-(3-pyridyl)ethylcarbamoyl]-2-pyridyl]benzoate] | C (C = ≥66% inhibition)
7 | COC(=O)c1cc(-c2ccc(C(=O)NCCc3cn[nH]c3)cn2)ccc1N(CC1CC1)C(C)=O [I-T2297, Methyl 2-[acetyl(cyclopropylmethyl)amino]-5-[5-[2-(1H-pyrazol-4-yl)ethylcarbamoyl]-2-pyridyl]benzoate] | C (C = ≥66% inhibition)
8 | COC(=O)c1cc(-c2ccc(C(=O)NCCCc3cn[nH]c3)cn2)ccc1N(CC1CC1)C(C)=O [I-T2298, Methyl 2-[acetyl(cyclopropylmethyl)amino]-5-[5-[3-(1H-pyrazol-4-yl)propylcarbamoyl]-2-pyridyl]benzoate] | C (C = ≥66% inhibition)
9 | COC(=O)c1cc(-c2ccc(C(=O)NCCCc3cc[nH]n3)cn2)ccc1N(CC1CC1)C(C)=O [I-T2299, Methyl 2-[acetyl(cyclopropylmethyl)amino]-5-[5-[3-(1H-pyrazol-3-yl)propylcarbamoyl]-2-pyridyl]benzoate] | C (C = ≥66% inhibition)
10 | COC(=O)c1cc(-c2ccc(C(=O)NCCCn3ccnc3)cn2)ccc1N(CC1CC1)C(C)=O [I-T2300, Methyl 2-[acetyl(cyclopropylmethyl)amino]-5-[5-(3-imidazol-1-ylpropylcarbamoyl)-2-pyridyl]benzoate] | C (C = ≥66% inhibition)
11 | CC(=O)N(CC1CC1)c1ccc(-c2ccc(C(=O)NCCc3cccnc3)cn2)cc1F [I-T2301, 6-[4-[acetyl(cyclopropylmethyl)amino]-3-fluoro-phenyl]-N-[2-(3-pyridyl)ethyl]pyridine-3-carboxamide] | C (C = ≥66% inhibition)
12 | CC(=O)N(CC1CC1)c1ccc(-c2ccc(C(=O)NCCCc3cn[nH]c3)cn2)cc1F [I-T2302, 6-[4-[acetyl(cyclopropylmethyl)amino]-3-fluoro-phenyl]-N-[3-(1H-pyrazol-4-yl)propyl]pyridine-3-carboxamide] | C (C = ≥66% inhibition)
13 | CC(=O)N(CC1CC1)c1ccc(-c2ccc(C(=O)NCCc3cccnc3)cn2)cc1C(F)(F)F [I-T2303, 6-[4-[Acetyl(cyclopropylmethyl)amino]-3-(trifluoromethyl)phenyl]-N-[2-(3-pyridyl)ethyl]pyridine-3-carboxamide] | C (C = ≥66% inhibition)
14 | CC(=O)N(CC1CC1)c1ccc(-c2ccc(C(=O)NCCCc3cn[nH]c3)cn2)cc1C(F)(F)F [I-T2304, 6-[4-[Acetyl(cyclopropylmethyl)amino]-3-(trifluoromethyl)phenyl]-N-[3-(1H-pyrazol-4-yl)propyl]pyridine-3-carboxamide] | C (C = ≥66% inhibition)
15 | CC(=O)N(CC1CC1)c1ccc(-c2ccc(C(=O)NCCc3cccnc3)cn2)cc1C#N [I-T2305, 6-[4-[Acetyl(cyclopropylmethyl)amino]-3-cyano-phenyl]-N-[2-(3-pyridyl)ethyl]pyridine-3-carboxamide] | C (C = ≥66% inhibition)
16 | CC(=O)N(CC1CC1)c1ccc(-c2ccc(C(=O)NCCCc3cn[nH]c3)cn2)cc1C#N [I-T2306, 6-[4-[acetyl(cyclopropylmethyl)amino]-3-cyano-phenyl]-N-[3-(1H-pyrazol-4-yl)propyl]pyridine-3-carboxamide] | C (C = ≥66% inhibition)

Row | SMILES | NAMPT Inhibition Code*
17 | CC(=O)N(CC1CC1)c1ccc(-c2ccc(C(=O)NCCc3ccncc3)cn2)cc1Cl [I-T2308, 6-[4-[Acetyl(cyclopropylmethyl)amino]-3-chloro-phenyl]-N-[2-(4-pyridyl)ethyl]pyridine-3-carboxamide] | C (C = ≥66% inhibition)
18 | CC(=O)N(CC1CC1)c1ccc(-c2ccc(C(=O)NCCc3ccc(C)nc3)cn2)cc1Cl [I-T2309, 6-[4-[Acetyl(cyclopropylmethyl)amino]-3-chloro-phenyl]-N-[2-(6-methyl-3-pyridyl)ethyl]pyridine-3-carboxamide] | B (B = >33 to <66% inhibition)
19 | CC(=O)N(CC1CC1)c1ccc(-c2ccc(C(=O)NCCCc3cc[nH]n3)cn2)cc1C#N [I-T2313, 6-[4-[acetyl(cyclopropylmethyl)amino]-3-cyano-phenyl]-N-[3-(1H-pyrazol-5-yl)propyl]pyridine-3-carboxamide] | C (C = ≥66% inhibition)
20 | CC(=O)N(CC1COC1)c1ccc(-c2ccc(C(=O)NCc3ccccc3)cn2)cc1Cl [I-T2327, 6-[4-[acetyl(oxetan-3-ylmethyl)amino]-3-chloro-phenyl]-N-benzyl-pyridine-3-carboxamide] | A (*A = <33% inhibition)
21 | CC(=O)N(CC1CC1)c1ccc(-c2ccc(NC(=O)COc3ccccc3)cn2)cc1Cl [I-T2328, N-[6-[4-[acetyl(cyclopropylmethyl)amino]-3-chloro-phenyl]-3-pyridyl]-2-phenoxy-acetamide] | C (C = ≥66% inhibition)
22 | CC(=O)N(CC1CC1)c1ccc(-c2ccc(NC(=O)/C=C/c3ccccc3)cn2)cc1Cl [I-T2329, (E)-N-[6-[4-[acetyl(cyclopropylmethyl)amino]-3-chloro-phenyl]-3-pyridyl]-3-phenyl-prop-2-enamide] | C (C = ≥66% inhibition)
23 | CC(=O)N(CC1CC1)c1ccc(-c2ccc(NC(=O)C(F)c3ccccc3)cn2)cc1Cl (centres unmarked) [I-T2331, N-[6-[4-[acetyl(cyclopropylmethyl)amino]-3-chloro-phenyl]-3-pyridyl]-2-fluoro-2-phenyl-acetamide] | B (B = >33 to <66% inhibition)
24 | CC(=O)N(CC1CC1)c1ccc(-c2ccc(C(=O)N3Cc4ccc(F)cc4C3)cn2)cc1Cl [I-T2336, N-[2-chloro-4-[5-(5-fluoroisoindoline-2-carbonyl)-2-pyridyl]phenyl]-N-(cyclopropylmethyl) acetamide] | C (C = ≥66% inhibition)
25 | CC(=O)N(CC1CC1)c1ccc(-c2ccc(C(=O)NCC3CCCCC3)cn2)cc1Cl [I-T2337, 6-[4-[acetyl(cyclopropylmethyl)amino]-3-chloro-phenyl]-N-(cyclohexylmethyl)pyridine-3-carboxamide] | C (C = ≥66% inhibition)
26 | CC(=O)N(CC1CC1)c1ccc(-c2ccc(C(=O)NCC3CCCN(C)C3)cn2)cc1Cl (centres unmarked) [I-T2338, 6-[4-[acetyl(cyclopropylmethyl)amino]-3-chloro-phenyl]-N-[(1-methyl-3-piperidyl)methyl]pyridine-3-carboxamide] | A (*A = <33% inhibition)
27 | CC(=O)N(CC1CC1)c1ccc(-c2ccc(C(=O)NCCN3CCCCC3)cn2)cc1Cl [I-T2339, 6-[4-[acetyl(cyclopropylmethyl)amino]-3-chloro-phenyl]-N-[2-(1-piperidyl)ethyl]pyridine-3-carboxamide] | A (*A = <33% inhibition)
28 | CC(=O)N(CC1CC1)c1ccc(-c2ccc(C(=O)NCC3CCCCO3)cn2)cc1Cl (centres unmarked) [I-T2340, 6-[4-[acetyl(cyclopropylmethyl)amino]-3-chloro-phenyl]-N-(tetrahydropyran-2-ylmethyl)pyridine-3-carboxamide] | A (*A = <33% inhibition)
29 | CC(=O)N(CC1CC1)c1ccc(-c2ccc(C(=O)NCc3cccc(F)c3)cn2)cc1Cl [I-T2341, 6-[4-[acetyl(cyclopropylmethyl)amino]-3-chloro-phenyl]-N-[(3-fluorophenyl)methyl]pyridine-3-carboxamide] | C (C = ≥66% inhibition)
30 | CC(=O)N(CC1CC1)c1ccc(-c2ccc(C(=O)NCCc3cccc(F)c3)cn2)cc1Cl [I-T2342, 6-[4-[acetyl(cyclopropylmethyl)amino]-3-chloro-phenyl]-N-[2-(3-fluorophenyl)ethyl]pyridine-3-carboxamide] | C (C = ≥66% inhibition)
31 | CC(=O)N(CC1CC1)c1ccc(-c2ccc(C(=O)NCC3CCCC34CC4)cn2)cc1Cl (centres unmarked) [I-T2343, 6-[4-[acetyl(cyclopropylmethyl)amino]-3-chloro-phenyl]-N-(spiro[2.4]heptan-7-ylmethyl)pyridine-3-carboxamide] | A (*A = <33% inhibition)
32 | CC(=O)N(CC1CC1)c1ccc(-c2ccc(C(=O)NCC3CC(F)(F)C3)cn2)cc1Cl [I-T2345, 6-[4-[acetyl(cyclopropylmethyl)amino]-3-chloro-phenyl]-N-[(3,3-difluorocyclobutyl)methyl]pyridine-3-carboxamide] | A (*A = <33% inhibition)
